Test results as given in USRE47689E1, “Compounds for treating spinal muscular atrophy” (PTC Therapeutics, Inc., priority 2011, dated 2019).

Legend:
[1] = system: Smn protein; assay: Smn protein assay in cultured cells (SMN HTRF); type: cell-based, human; settings: 48 hours; for maximum fold (Fold) increase of Smn protein: SMA patient fibroblast cells, 7-point concentration data, fold increase relative to vehicle control (SMN HTRF); for EC1.5x (concentration giving 1.5-fold Smn protein increase): SMA Type 1 patient fibroblast cells (GM03813), 7-point concentration curve, SMN HTRF, concentration producing 1.5 times Smn protein vs DMSO vehicle control, read-out: EC1.5x for Smn protein expression
Procedure: The SMN HTRF (homogeneous time resolved fluorescence) assay is used to quantify the level of Smn protein in SMA patient fibroblast cells treated with test compounds.
Protocol. Cells are thawed and cultured in DMEM-10% FBS for 72 hours. Cells are trypsinized, counted and resuspended to a concentration of 25,000 cells/mL in DMEM-10% FBS. […] 1 μL of test compound solution is transferred to cell-containing wells and cells are incubated for 48 hours in a cell culture incubator (37° C., 5% CO2, 100% relative humidity). Triplicate samples are set up for each test compound concentration. After 48 hours, the supernatant is removed from the wells and 25 μL of the RIPA lysis buffer, containing protease inhibitors, is added to the wells and incubated with shaking at room temperature for 1 hour. 25 μL of the diluent is added and then 35 μL of the resulting lysate is transferred to a 384-well plate, where each well contains 5 μL of the antibody solution (1:100 dilution of anti-SMN d2 and anti-SMN kryptate in SMN reconstitution buffer). The plate is centrifuged for 1 minute to bring the solution to the bottom of the wells, then incubated overnight at room temperature. Fluorescence for each well of the plate at 665 nm and 620 nm is measured on an EnVision multilabel plate reader (Perkin-Elmer).
The normalized fluorescence signal is calculated for each sample, Blank and vehicle control well by dividing the signal at 665 nm by the signal at 620 nm. Normalizing the signal accounts for possible fluorescence quenching due to the matrix effect of the lysate. The ΔF value (a measurement of Smn protein abundance) for each sample well is calculated by subtracting the normalized average fluorescence for the Blank control wells from the normalized fluorescence for each sample well and then dividing this difference by the normalized average fluorescence for the Blank control wells. The resulting ΔF value for each sample well represents the Smn protein abundance from test compound-treated samples. The ΔF value for each sample well is divided by the ΔF value for the vehicle control wells to calculate the fold increase in Smn protein abundance relative to the vehicle control.
An EC1.5x for Smn protein expression between >3 μM and ≤10 μM is indicated by one star (*), an EC1.5x between >1 and ≤3 μM is indicated by two stars (**), an EC1.5x between >0.3 μM and ≤1 μM is indicated by three stars (***) and an EC1.5x≤0.3 μM is indicated by four stars (****).

[2] = system: SMN2 minigene (full length SMN2 minigene mRNA containing SMN2 exon 7); assay: SMN2 minigene mRNA splicing RT-qPCR assay in cultured cells; type: cell-based, human; settings: HEK293H cells stably transfected with SMN2-A minigene, 24 hours, 7-point concentration curve, 1.5-fold relative to vehicle-treated cells; for EC (1.5-fold): Homo sapiens, HEK293-H, read-out: EC1.5x for production of full length SMN2 mRNA
Procedure: The reverse transcription-quantitative PCR-based (RT-qPCR) assay is used to quantify the level of the full length SMN2 minigene mRNA containing SMN2 exon 7 in a HEK293H cell line stably transfected with said minigene and treated with a test compound.
Protocol. HEK293H cells stably transfected with the SMN2-A minigene construct described above (10,000 cells/well) are seeded in 200 μL of cell culture medium (DMEM plus 10% FBS, with 200 μg/mL hygromycin) in 96-well flat-bottom plates and the plate is immediately swirled to ensure proper dispersal of cells, forming an even monolayer of cells. Cells are allowed to attach for at least 4-6 hours. […] A solution of test compound (1 μL, 200× in DMSO) is added to each cell-containing well and the plate is incubated for 24 hours in a cell culture incubator (37° C., 5% CO2, 100% relative humidity). 2 replicates are prepared for each test compound concentration. The cells are then lysed in Cells-To-Ct lysis buffer and the lysate is stored at −80° C.
The combination of these three oligonucleotides detects only SMN1 or SMN2 minigenes (RT-qPCR) and will not detect endogenous SMN1 or SMN2 genes.
The SMN forward and reverse primers are used at final concentrations of 0.4 μM.
The SMN2-minigene GAPDH mix (15 μL total volume) is prepared by combining 7.5 μL of 2×RT-PCR buffer, 0.4 μL of 25×RT-PCR enzyme mix, 0.75 μL of 20×GAPDH primer-probe mix, 4.0075 μL of water, 2 μL of 10-fold diluted cell lysate, 0.06 μL of 100 μM SMN forward primer, 0.06 μL of 100 μM SMN reverse primer, and 0.225 μL of 100 μM SMN probe.
PCR is carried out at the following temperatures for the indicated time: Step 1: 48° C. (15 min); Step 2: 95° C. (10 min); Step 3: 95° C. (15 sec); Step 4: 60° C. (1 min); then repeat Steps 3 and 4 for a total of 40 cycles.
Each reaction mixture contains both SMN2-A minigene and GAPDH primers/probe sets (multiplex design), allowing simultaneous measurement of the levels of two transcripts.
Two SMN spliced products are generated from the SMN2 minigene. The first spliced product containing exon 7, corresponding to full length SMN2 mRNA, is called SMN2mini FL. The second one lacking exon 7 is called SMN2mini Δ7.
The amplification efficiency E is calculated from the slope of the amplification curve for SMN2mini FL and GAPDH individually. The abundances of SMN2mini FL and GAPDH are then calculated as […], where Ct is the threshold value for each amplicon. The abundance of SMN2mini FL is normalized to GAPDH abundance. The normalized SMN2mini FL abundance from test compound-treated samples is then divided by normalized SMN2mini FL abundance from vehicle-treated cells to determine the level of SMN2 FL mRNA relative to vehicle control.
An EC1.5x for production of full length SMN2 mRNA between >3 μM and ≤30 μM is indicated by one star (*), an EC1.5x between >1 μM and ≤3 μM is indicated by two stars (**), an EC1.5x between >0.3 μM and ≤1 μM is indicated by three stars (***), an EC1.5x between >0.1 μM and ≤0.3 μM is indicated by four stars (****) and an EC1.5x≤0.1 μM is indicated by five stars (*****).

CC1CN(c2ccc3cc(-c4nc5ccccc5o4)c(=O)oc3c2)C(C)CN1 (centres unmarked) [Compound 86, 3-(1,3-benzoxazol-2-yl)-7-(2,5-dimethylpiperazin-1-yl)-2H-chromen-2-one]
maximum fold (Fold) increase of Smn protein [1]: * (maximum fold increase of ≤1.2)
EC (1.5-fold) [2]: 3 to 30 µM

7-(2,5-diazabicyclo[2.2.2]oct-2-yl)-3-(pyrazolo[1,5-a]pyridin-2-yl)-2H-chromen-2-one [Compound 191]
maximum fold (Fold) increase of Smn protein [1]: ** (fold increase between >1.2 and ≤1.35)
EC1.5x for production of full length SMN2 mRNA [2]: *** (between >0.3 μM and ≤1 μM)

Cc1cn2cc(-c3cc4ccc(N5CCCN(C)CC5)cc4oc3=O)cc2c(C)n1 [Compound 681, 3-(1,3-dimethylpyrrolo[1,2-a]pyrazin-7-yl)-7-(4-methyl-1,4-diazepan-1-yl)-2H-chromen-2-one]
EC1.5x (concentration giving 1.5-fold Smn protein increase) [1]: < 300 nM
maximum fold (Fold) increase of Smn protein [1]: **** (fold increase between >1.5 and ≤1.65)
EC (1.5-fold) [2]: < 0.1 µM

Cc1cn2cc(-c3cc4ccc(N5CC(CN)C5)cc4oc3=O)nc2c(C)n1 [Compound 963, 7-[3-(aminomethyl)azetidin-1-yl]-3-(6,8-dimethylimidazo[1,2-a]pyrazin-2-yl)-2H-chromen-2-one]
maximum fold (Fold) increase of Smn protein [1]: *** (fold increase between >1.35 and ≤1.5)
EC (1.5-fold) [2]: 0.3 to 1 µM

CN1CCN(c2ccc3cc(-c4ccnc(C5CC5)n4)c(=O)oc3c2)CC1 [Compound 298, 3-(2-cyclopropylpyrimidin-4-yl)-7-(4-methylpiperazin-1-yl)-2H-chromen-2-one]
maximum fold (Fold) increase of Smn protein [1]: * (maximum fold increase of ≤1.2)
EC (1.5-fold) [2]: 1 to 3 µM

3-(6-chloroimidazo[1,2-a]pyrimidin-2-yl)-7-(piperazin-1-yl)-2H-chromen-2-one [Compound 348]
maximum fold (Fold) increase of Smn protein [1]: * (maximum fold increase of ≤1.2)
EC1.5x for production of full length SMN2 mRNA [2]: ** (between >1 μM and ≤3 μM)

Cc1cn2cc(-c3cc4ccc(N[C@H]5CCNC5)cc4oc3=O)nc2c(C)n1 [Cpd 563, 3-(6,8-dimethylimidazo[1,2-a]pyrazin-2-yl)-7-[(3S)-pyrrolidin-3-ylamino]-2H-chromen-2-one]
EC1.5x (concentration giving 1.5-fold Smn protein increase) [1]: < 300 nM
maximum fold (Fold) increase of Smn protein [1]: ***** (fold increase >1.65)
EC (1.5-fold) [2]: < 0.1 µM

Cc1cn2cc(-c3cc4ccc(N5CCC(CNC(C)C)CC5)cc4oc3=O)cc2c(C)n1 [Compound 790, 3-(1,3-dimethylpyrrolo[1,2-a]pyrazin-7-yl)-7-{4-[(propan-2-ylamino)methyl]piperidin-1-yl}-2H-chromen-2-one]
maximum fold (Fold) increase of Smn protein [1]: ** (fold increase between >1.2 and ≤1.35)
EC (1.5-fold) [2]: 0.3 to 1 µM

Cc1nc(Cl)cn2cc(-c3cc4ccc(N5C[C@@H]6C[C@H]5CN6)cc4oc3=O)nc12 [Compound 780, 3-(6-chloro-8-methylimidazo[1,2-a]pyrazin-2-yl)-7-[(1S,4S)-2,5-diazabicyclo[2.2.1]hept-2-yl]-2H-chromen-2-one]
EC1.5x (concentration giving 1.5-fold Smn protein increase) [1]: < 300 nM
maximum fold (Fold) increase of Smn protein [1]: **** (fold increase between >1.5 and ≤1.65)
EC (1.5-fold) [2]: < 0.1 µM

CSc1nccn2cc(-c3cc4ccc(N5CCN(C)CC5)cc4oc3=O)nc12 [Compound 399, 7-(4-methylpiperazin-1-yl)-3-[8-(methylsulfanyl)imidazo[1,2-a]pyrazin-2-yl]-2H-chromen-2-one]
maximum fold (Fold) increase of Smn protein [1]: * (maximum fold increase of ≤1.2)
EC (1.5-fold) [2]: 3 to 30 µM

Cc1cn2cc(-c3cc4ccc(OCCN5CC[C@H](O)C5)cc4oc3=O)nc2c(C)n1 [Compound 954, 3-(6,8-dimethylimidazo[1,2-a]pyrazin-2-yl)-7-{2-[(3S)-3-hydroxypyrrolidin-1-yl]ethoxy}-2H-chromen-2-one]
EC1.5x (concentration giving 1.5-fold Smn protein increase) [1]: < 300 nM
maximum fold (Fold) increase of Smn protein [1]: ***** (fold increase >1.65)
EC (1.5-fold) [2]: < 0.1 µM

Cc1nccc(-c2cc3ccc(N4CCN(C)CC4)cc3oc2=O)n1 [Compound 297, 7-(4-methylpiperazin-1-yl)-3-(2-methylpyrimidin-4-yl)-2H-chromen-2-one]
maximum fold (Fold) increase of Smn protein [1]: * (maximum fold increase of ≤1.2)
EC (1.5-fold) [2]: 3 to 30 µM

COCCNCCOc1ccc2cc(-c3cn4cc(C)nc(C)c4n3)c(=O)oc2c1 [Compound 960, 3-(6,8-dimethylimidazo[1,2-a]pyrazin-2-yl)-7-{2-[(2-methoxyethyl)amino]ethoxy}-2H-chromen-2-one]
EC1.5x (concentration giving 1.5-fold Smn protein increase) [1]: 1000 to 3000 nM
maximum fold (Fold) increase of Smn protein [1]: *** (fold increase between >1.35 and ≤1.5)
EC (1.5-fold) [2]: < 0.1 µM

CC[C@H]1CN(c2ccc3cc(-c4cn5cc(C)nc(C)c5n4)c(=O)oc3c2)CCN1 [Compound 772, 3-(6,8-dimethylimidazo[1,2-a]pyrazin-2-yl)-7-[(3S)-3-ethylpiperazin-1-yl]-2H-chromen-2-one]
EC1.5x (concentration giving 1.5-fold Smn protein increase) [1]: < 300 nM
maximum fold (Fold) increase of Smn protein [1]: ***** (fold increase >1.65)
EC (1.5-fold) [2]: < 0.1 µM

Cc1cn2cc(-c3cc4ccc(N5CCCN(C(C)C)CC5)cc4oc3=O)cc2cn1 [Compound 753, 3-(3-methylpyrrolo[1,2-a]pyrazin-7-yl)-7-[4-(propan-2-yl)-1,4-diazepan-1-yl]-2H-chromen-2-one]
EC1.5x (concentration giving 1.5-fold Smn protein increase) [1]: 1000 to 3000 nM
maximum fold (Fold) increase of Smn protein [1]: *** (fold increase between >1.35 and ≤1.5)
EC (1.5-fold) [2]: < 0.1 µM

Cc1nc2ccc(-c3cc4ccc(C5=CCNCC5)cc4oc3=O)nn2c1C1=CCNCC1 [Cpd 845, 3-[2-methyl-3-(1,2,3,6-tetrahydropyridin-4-yl)imidazo[1,2-b]pyridazin-6-yl]-7-(1,2,3,6-tetrahydropyridin-4-yl)-2H-chromen-2-one]
maximum fold (Fold) increase of Smn protein [1]: * (maximum fold increase of ≤1.2)
